In US9585988B2, “Anchorage devices comprising an active pharmaceutical ingredient” (TYRX, Inc., priority 2010, dated 2017) one finds concentration and myofibroblast formation data, which are given here for three compounds.

Series [1] in a line: Tissue concentration of antibiotic after implantation. The series is classed as in vivo. Conditions: other: implantation.
A short description of series [2]: Pocket concentration of antibiotic after implantation. Type of series: in vivo. Conditions: other: implantation.
Series [3] in a line: Post implant serum concentration of antibiotic. Type of series: in vivo. Conditions: other: implantation.
The next series has as its system myofibroblast formation. Conditions: Ajmal et al. (2003); cited from earlier work.
Setting [4] is: 2 h, Left, read-out: Average Tissue concentration.
Where [5] appears, read: 2 h, Right, read-out: Average Tissue concentration.
Setting [6] is: 6 h, Left, read-out: Average Tissue concentration.
Where [7] appears, read: 6 h, Right, read-out: Average Tissue concentration.
Where [8] appears, read: 24 h, Left, read-out: Average Tissue concentration.
Setting [9] is: 24 h, Right, read-out: Average Tissue concentration.
Where [10] appears, read: after about 2 hours, range worded for embodiments, see Table 7, read-out: tissue concentration.
Setting [11] is: after about 6 hours, range worded for embodiments, see Table 7, read-out: tissue concentration.
[12] abbreviates: after about 24 hours, range worded for embodiments, see Table 7, read-out: tissue concentration.
Where [13] appears, read: after about 2 hours, range worded for embodiments, see Table 8.
Setting [14] is: after about 6 hours, range worded for embodiments, see Table 8.
The mark [15] stands for this setting: after about 2 hours, range worded for embodiments, see Table 9.
Setting [16] is: after about 6 hours, range worded for embodiments, see Table 9.
Where [17] appears, read: after about 24 hours, range worded for embodiments, see Table 9.

Regarding `CO[C@H]1/C=C/O[C@@]2(C)Oc3c(C)c(O)c4c(O)c(c(/C=N/N5CCN(C)CC5)c(O)c4c3C2=O)NC(=O)/C(C)=C\C=C\[C@H](C)[C@H](O)[C@@H](C)[C@@H](O)[C@@H](C)[C@H](OC(C)=O)[C@@H]1C` [Rifampin], the concentration at 2 h is 765 ng/mL in series [1] (setting [4]); 1270 ng/mL in series [1] (setting [5]); 600 to 1400 ng/mL in series [1] (setting [10]); 2020 ng/mL in series [2] (2 h, Left); 16400 ng/mL in series [2] (2 h, Right); 1000 to 20000 ng/mL in series [2] (setting [13]). In addition, the concentration at 2 h was 27.1 ng/mL in series [3] (2 h) and 15 to 45 ng/mL in series [3] (setting [15]). The concentration at 6 h is 2080 ng/mL in series [1] (setting [6]); 2210 ng/mL in series [1] (setting [7]); 1900 to 2300 ng/mL in series [1] (setting [11]); 19600 ng/mL in series [2] (6 h, Left); 100000 ng/mL in series [2] (6 h, Right); 15000 to 110000 ng/mL in series [2] (setting [14]). The concentration at 6 h is 20.8 ng/mL in series [3] (6 h) and 10 to 40 ng/mL in series [3] (setting [16]). Also, the concentration at 24 h in series [1] (setting [8]) is 4040 ng/mL; in series [1] (setting [9]) it was 2720 ng/mL; in series [1] (setting [12]), 2600 to 4200 ng/mL; in series [3] (24 h), 44.3 ng/mL; in series [3] (setting [17]), 30 to 60 ng/mL.

For the compound `O=S(=O)([O-])CCS.[Na+]` [MESNA, sodium 2-mercaptoethane sulfonate], the myofibroblast formation entry in the series on myofibroblast formation is listed as “diminish myofibroblast formation”.

Turning to `CN(C)c1ccc(O)c2c1C[C@H]1C[C@H]3[C@H](N(C)C)C(O)=C(C(N)=O)C(=O)[C@@]3(O)C(O)=C1C2=O` [Minocycline], the concentration at 2 h in series [1] (setting [4]) is 700 ng/mL; in series [1] (setting [5]) it was 783 ng/mL; in series [1] (setting [10]) it was 650 to 800 ng/mL; in series [2] (2 h, Left) it was 16400 ng/mL; in series [2] (setting [13]), 15000 to 17000 ng/mL; in series [3] (2 h), 46.5 ng/mL. In series [3] (setting [15]), the concentration at 2 h was in the range of 30 to 60 ng/mL. Moreover, the concentration at 6 h in series [1] (setting [6]) was 2680 ng/mL; in series [1] (setting [7]), 2600 ng/mL; in series [1] (setting [11]), 2550 to 2750 ng/mL; in series [2] (6 h, Left), 26800 ng/mL; in series [2] (6 h, Right) it was 207000 ng/mL; in series [2] (setting [14]), 25000 to 210000 ng/mL. The concentration at 6 h in series [3] (6 h) is 79.1 ng/mL; in series [3] (setting [16]), 60 to 100 ng/mL. For the same compound, the concentration at 24 h in series [1] (setting [8]) was 1330 ng/mL; in series [1] (setting [9]), 1840 ng/mL; in series [1] (setting [12]), 1200 to 1900 ng/mL; in series [3] (24 h), 69.4 ng/mL; in series [3] (setting [17]) it was 50 to 90 ng/mL.
